In brackets after ≈: the same amount, converted by molar mass. Read-outs that look alike come from different tables or passages of the source. Where a SMILES comes first, the peptide text is derived from it.
How the values were obtained:
[1] = system: six bacteria (S. aureus, E. coli, P. aeruginosa; ATCC and clinical isolate); type: cell-based; conditions: synthesized mature peptide
Summary of the method: (§1)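 MIC read visually as the lowest peptide concentration with no growth versus negative control, after 20–24 h at 35°C. Peptides were tested in duplicate 64-0.125μg/mL (final) in MHB or cation-supplemented MH II B, some with 10% lysed horse blood; inoculum 5 x 10^5 CFU/mL.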

[2] = system: three fungi (Candida krusei, Candida parapsilosis, Candida albicans); assay: Antifungal screening, summary over the panel of fungi (broth microdilution); type: cell-based; conditions: synthesized mature peptide
Description: Antimicrobial testing of 78 cathelicidin MPs was performed in two phases as outlined in Figure 1 . In phase I, 40 peptides (27 extant and 13 ancestral) were selected for testing based on rank (outlined above) and similarity to published marsupial cathelicidins with known antimicrobial activity ([33], [41]–[43]). These peptides were tested against nine bacteria (Staphylococcus aureus ATCC 29213 and clinical isolate, Escherichia coli ATCC 25922 and clinical isolate, Pseudomonas aeruginosa ATCC 27853 and clinical isolate, Streptococcus agalactiae ATCC 12386 and clinical isolate, Streptococcus pneumoniae ATCC 49619) and three fungi (Candida krusei ATCC 6258, Candida parapsilosis ATCC 22019, and Candida albicans clinical isolate). Details regarding these strains are available in Supplementary Table 4 . The antimicrobial activity of cathelicidins was determined as the minimum inhibitory concentration (MIC), which was the lowest concentration of cathelicidin that prevented visible bacterial or fungal growth, relative to the negative control. […] Minimum bactericidal concentration (MBC) and/or minimum fungicidal concentration (MFC) was conducted to determine microbicidal versus static action. Activity against S. aureus ATCC, E. coli ATCC, and Pseudomonas aeruginosa ATCC 27853 was examined in the presence of divalent cations to determine the impact of inhibitors.
Antimicrobial activity was determined using a broth microdilution susceptibility assay in 96 well polypropylene plates according to Clinical Laboratory Standards Institute guidelines M07-A and M26A as described previously ([33], [42], [43]). The bacterial and fungal isolates from humans and animals used in this study are outlined in Supplementary Table 4 . Only yeasts were included in the panel of fungi as they have been used in the susceptibility testing of eutherian ([3], [81]–[83]) and other marsupial cathelicidins previously ([33], [42], [43]). Cathelicidin mature peptides were solubilized in DMSO and serially diluted in duplicate from 128-0.25μg/mL in a final volume of 100µL. For bacteria, cathelicidins were diluted in Mueller Hinton Broth (MHB) with or without 10% lysed horse blood, and with (MH II B) or without (MHB) calcium and magnesium cations. For fungi, cathelicidins were diluted in Roswell Park Memorial Institute medium (RPMI)-1640 MOPS. Ampicillin or tetracycline were included as a positive control for Gram-positive and -negative bacteria respectively, while amphotericin B was used for fungi. A media-only negative control and growth control (no cathelicidin) were also included on each plate. Bacteria were sub-cultured on Muller Hinton agar (MHA) or sheep blood agar (BA), and fungi on Sabouraud dextrose agar (SAB), 20–24 hours prior to the test. Colonies were suspended in saline, the concentration adjusted to a 0.5 McFarland standard, and then diluted in media to a concentration of 1.0 x 10^6 cells/mL. Then, 100μL was added to each well of the cathelicidin dilution plate, giving a final inoculum density of 5 x 10^5 CFU/mL and cathelicidin concentration of 64-0.125μg/mL. Colony counts were performed on MHA/BA/SAB to confirm inoculum density. All plates were incubated at 35°C for 20–24 hours, depending on the strain.
Colonies were counted and compared to the colony count of the starting inoculum.

[3] = system: Staphylococcus aureus clinical isolate – animal, penicillin-resistant (PRSA); type: cell-based; conditions: clinical isolate – animal, penicillin-resistant (PRSA)
Summary of the method: (§2)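 Endpoint is visible-growth inhibition (MIC) after 35°C, 20–24 h incubation. Yeast medium was RPMI-1640 MOPS; bacterial medium was Mueller Hinton broth, with or without divalent cations and lysed horse blood. Final peptide range 64-0.125μg/mL.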

[4] = system: Staphylococcus aureus clinical isolate – animal, methicillin-resistant (MRSA); type: cell-based; conditions: clinical isolate – animal, methicillin-resistant
Summary of the method: as §2

S. aureus ATCC 29213 = assay: Killing kinetics (time kill assay); type: cell-based, Staphylococcus aureus; conditions: MHB, 35°C, sampled 1-24 hours, n = 2
Description: The killing kinetics assay was conducted using mid-logarithmic phase cultures of E. coli ATCC 25922 and S. aureus ATCC 29213 in MHB. Cultures were adjusted to a 0.5 McFarland standard, diluted in MHB, and then 100µL was added to each culture tube containing 10mL pre-warmed MHB to give a final inoculum concentration of 5 x 10^5 CFU/mL. A sterility control of 100uL MHB, growth control (no cathelicidin), and vehicle control (DMSO) were also included. Furthermore, 10uL was immediately removed from the growth control tube, diluted 1/1000 in saline and 100µL plated onto MHA in duplicate to confirm inoculum density. To establish colony counts from 0 hours of cathelicidin treatment, 200µL was removed from each culture tube and serially diluted ten-fold in saline from 10^0 to […] in a total volume of 200µL. Then, 10µL of each dilution was spotted onto MHA in duplicate, which were incubated at 35°C for 24 hours.
All culture tubes were then incubated at 35°C static. At 1, 2, 4, 6, 8, 10, 12, and 24 hours post-cathelicidin treatment, 200µL was removed from each culture tube for dilution and plated on MHA as described above. […] Counts of duplicates were averaged, and the log10 CFU/mL graphed against time. This was used as input for one-way ANOVA (p < 0.05) followed by Dunnett’s post hoc test.

[5] = system: Streptococcus pneumoniae ATCC 49619; assay: microbe, parasite or virus in culture; type: cell-based; conditions: ATCC 49619; read-out: MIC S. pneumoniae ATCC
Summary of the method: as §2

[6] = system: Streptococcus agalactiae ATCC 12386; assay: microbe, parasite or virus in culture; type: cell-based; conditions: ATCC 12386; read-out: MIC S. agalactiae ATCC
Summary of the method: as §2

[7] = system: Streptococcus agalactiae Clinical isolate - animal; assay: microbe, parasite or virus in culture; type: cell-based; conditions: clinical isolate - animal
Summary of the method: as §2

[8] = system: Staphylococcus aureus ATCC 29213; assay: microbe, parasite or virus in culture; type: cell-based; conditions: ATCC 29213
Summary of the method: as §1

[9] = system: Pseudomonas aeruginosa ATCC 27853; assay: microbe, parasite or virus in culture; type: cell-based; conditions: ATCC 27853; read-out: MIC P. aeruginosa ATCC
Summary of the method: as §1

[10] = system: Staphylococcus aureus clinical isolate - animal; assay: microbe, parasite or virus in culture; type: cell-based; conditions: clinical isolate - animal
Summary of the method: as §1

[11] = system: Pseudomonas aeruginosa clinical isolate - animal; assay: microbe, parasite or virus in culture; type: cell-based; conditions: clinical isolate - animal; read-out: MIC P. aeruginosa
Summary of the method: as §1

[12] = system: Escherichia coli clinical isolate - animal; assay: microbe, parasite or virus in culture; type: cell-based; conditions: clinical isolate - animal
Summary of the method: as §1

[13] = system: Escherichia coli ATCC 25922; assay: microbe, parasite or virus in culture; type: cell-based; conditions: ATCC 25922
Summary of the method: as §1

[14] = antimicrobial screening Phase I, Y/N summary over bacteria tested, broth microdilution
[15] = antimicrobial screening Phase I, Y/N summary over fungi tested, broth microdilution
[16] = broth microdilution screening, phase I or II, Y/N summary over the bacteria tested
[17] = broth microdilution screening, phase I, Y/N summary over the fungi tested

## RQIYDQAKYDILTGILRNF [BepeCath8]
[1]; [14]
  Antibacterial (MIC <64ug/mL): N (Antibacterial (MIC <64ug/mL))
[2]; [15]
  Antifungal (MIC <64ug/mL): N (Antifungal (MIC <64ug/mL))

## RQRRLPFLGDPRRFPRPRGRPQPDPRQGRPN [MAP4, marsupial ancestral peptide, predicted by ANCESCON and GASP, synthesized]
[1]; [14]
  Antibacterial (MIC <64ug/mL): N (Antibacterial (MIC <64ug/mL))
[2]; [15]
  Antifungal (MIC <64ug/mL): N (Antifungal (MIC <64ug/mL))

## KRFGFRWFIRTLLRFRGEKVKTRFIFAIEKLIDT [MAP12, marsupial ancestral peptide, predicted by ANCESCON and GASP, synthesized]
[1]; [14]
  Antibacterial (MIC <64ug/mL): N (Antibacterial (MIC <64ug/mL))
[2]; [15]
  Antifungal (MIC <64ug/mL): N (Antifungal (MIC <64ug/mL))

## KVKRGLWEDLKRKATKFGDDIRNTLRNVKIKFPVPHLG [MagiCath9]
[1]; [16]
  Antibacterial (MIC <64ug/mL): N (Antibacterial (MIC <64ug/mL))
[2]; [17]
  Antifungal (MIC <64ug/mL): N (Antifungal (MIC <64ug/mL))

## PKRKKGSKKRRFRPGGYTLIALGKPRVQKAPYMEAL [MAP3, marsupial ancestral peptide, likely linear, rich in arginine (32.2%) and proline (25.8%)]
[1]; [14]
  Antibacterial (MIC <64ug/mL): N (Antibacterial (MIC <64ug/mL))
[2]; [15]
  Antifungal (MIC <64ug/mL): N (Antifungal (MIC <64ug/mL))

## PGKRRGKLIKKGGKGVKRLLPKNGIIILPPG [MAP5, marsupial ancestral peptide, predicted by ANCESCON and GASP, synthesized]
[1]; [14]
  Antibacterial (MIC <64ug/mL): N (Antibacterial (MIC <64ug/mL))
[2]; [15]
  Antifungal (MIC <64ug/mL): N (Antifungal (MIC <64ug/mL))

## CC[C@H](C)[C@H](NC(=O)[C@H](CCCCN)NC(=O)[C@H](CC(N)=O)NC(=O)[C@H](CC(C)C)NC(=O)CNC(=O)[C@H](CCC(N)=O)NC(=O)CNC(=O)[C@H](CC(C)C)NC(=O)[C@H](CCCCN)NC(=O)[C@H](CCSC)NC(=O)[C@H](Cc1c[nH]c2ccccc12)NC(=O)CNC(=O)[C@H](CCCCN)NC(=O)[C@H](CCCCN)NC(=O)[C@H](CCC(=O)O)NC(=O)[C@H](Cc1c[nH]cn1)NC(=O)[C@H](CCCNC(=N)N)NC(=O)[C@H](CCCCN)NC(=O)[C@@H](NC(=O)[C@@H](N)CCCCN)[C@@H](C)CC)C(=O)N[C@@H](CC(C)C)C(=O)N[C@@H](CCCCN)C(=O)N[C@@H](Cc1c[nH]cn1)C(=O)N[C@@H](Cc1ccccc1)C(=O)N[C@@H](CC(N)=O)C(=O)N[C@H](C(=O)N[C@@H](CC(=O)O)C(=O)N[C@@H](Cc1ccccc1)C(=O)N[C@@H](CS)C(=O)N[C@@H](CC(C)C)C(=O)N[C@@H](CC(N)=O)C(=O)N[C@@H](CS)C(=O)O)[C@@H](C)CC [LalaCath3] (H-KIKRHEKKGWMKLGQGLNKILKHFNIDFCLNC-OH; N-terminus and C-terminus assumed)
[3]
  MBC PRSA: 2 µM (≈ 7.68 µg/mL)
  MIC PRSA: 1 µM (≈ 3.84 µg/mL)
[4]
  MBC MRSA: 4.1 µM (≈ 15.8 µg/mL)
  MIC MRSA: 2 µM (≈ 7.68 µg/mL)
S. aureus ATCC 29213; 0.5x MIC
  Number of hours to cause a significant reduction in log CFU/mL of S. aureus ATCC (p < 0.05): 4 hours
S. aureus ATCC 29213; 2x MIC
  Number of hours to cause a significant reduction in log CFU/mL of S. aureus ATCC (p < 0.05): 2 hours
S. aureus ATCC 29213; MIC
  Number of hours to cause a significant reduction in log CFU/mL of S. aureus ATCC (p < 0.05): 4 hours
[5]
  MIC: >16.6 µM
[6]
  MIC: >16.6 µM
[7]
  MBC S. agalactiae: 8.3 µM (≈ 31.9 µg/mL)
  MIC S. agalactiae: 8.3 µM (≈ 31.9 µg/mL)
[8]
  MBC S. aureus ATCC: 4.1 µM (≈ 15.8 µg/mL)
[8]; read-out: MIC S. aureus ATCC
  MIC: 2 µM (≈ 7.68 µg/mL)
[8]; read-out: MIC in the presence of cations S. aureus ATCC
  MIC: 2 µM
[9]
  MIC: >16.6 µM
[10]
  MBC S. aureus: 4.1 µM (≈ 15.8 µg/mL)
[10]; read-out: MIC S. aureus
  MIC: 2 µM (≈ 7.68 µg/mL)
[10]; read-out: MIC in the presence of cations S. aureus
  MIC: 2 µM
[11]
  MIC: >16.6 µM
[12]
  MBC E. coli: 16.6 (16.6)^>16.6 µM
  MIC E. coli: 16.6 (16.6)^>16.6 µM
  MIC in the presence of cations E. coli: 16.6 (16.6)^>16.6 µM
[13]
  MBC E. coli ATCC: 8.3 (8.3)^8.3 µM
  MIC E. coli ATCC: 8.3 (8.3)^8.3 µM
  MIC in the presence of cations E. coli ATCC: 8.3 (8.3)^8.3 µM

## PELLRSRRSPLPRRKKGSKKNSYKTGGYSVIALGKSNVHKAPYMEAL [TrvuCath1]
[1]; [16]
  Antibacterial (MIC <64ug/mL): N (Antibacterial (MIC <64ug/mL))
[2]; [17]
  Antifungal (MIC <64ug/mL): N (Antifungal (MIC <64ug/mL))

## KRGLWESLKRKATKLGDDIRNTLRNFKIKVPVPRQWPIRV [MaruCath4p]
[1]; [16]
  Antibacterial (MIC <64ug/mL): Y (Antibacterial (MIC <64ug/mL))
[2]; [17]
  Antifungal (MIC <64ug/mL): N (Antifungal (MIC <64ug/mL))
